# Laboratory results published in patent US5733922A, “Imidazole derivative, pharmaceutically acceptable salt thereof, and anti-ulcer drug including such derivative or salt” (Arax Co., Ltd., priority 1995, dated 1998).
# Tested on: water-immersion restraint stress-induced gastric ulcer
# Experiment: Inhibitory effect on water-immersion restraint stress-induced gastric ulcer
# Assay type: in vivo
# Details: male SD rats, oral, 10 mg/kg, 7 h water-immersion restraint stress
# Protocol: Male 7-week SD rats were fasted for 24 hours, with a fast of water beginning in early morning of the day when the experiments were performed. The rats were classified into groups each consisting of five rats, such that all the groups have substantially the same average weight. Before giving a stress to the rats, the compounds of the Examples indicated in TABLE 1 were orally administered as specimen drugs to the rats, with a dose of 10 mg/kg. The rats were then kept in stress cages, and were given a stress by immersing the cages in a water bath kept at a substantially constant temperature of 23°±1° C., such that the water level was at the height of the xiphoid of the rats. Seven hours later, the specimen rats were sacrificed by ether, and the mucosa of the stomach of each rat was semi-fixed with 2% formalin. The longitudinal length of the damaged area of the gastric mucosa was measured. A sum of the measured length values of the rats of each group was calculated as an ulcer index. An anti-ulcer or ulcer inhibitory percent (%) was calculated as {1-(ulcer index of each group of specimen rats)/(ulcer index of non-specimen group)}×100.
row,SMILES,Inhibitory Percent (ulcer inhibitory percent)
1,"CN1C(=O)C(C)(C)N=C1SCc1ccccc1N(C)C [Example 35, 1-N-methyl-2-(2-dimethylaminobenzylthio)-4,4-dimethyl-2-imidazolin-5-one]",30.6%
2,"CCC1(c2ccccc2)N=C(SCc2ccccn2)NC1=O (centres unmarked) [Example 13, 2-(2-pyridylmethylthio)-5-ethyl-5-phenylimidazolin-4-one]",46.3%
3,"CC1N=C(SCc2ccccc2N(C)C)NC1=O (centres unmarked) [Example 22, 2-(2-dimethylaminobenzylthio)-5-methylimidazolin-4-one]",48.9%
4,"CC1(C)N=C(SCc2cccc3cccnc23)NC1=S [Example 44, 2-(8-quinolynylmethylthio)-5,5-dimethylimidazolin-4-thione]",28.8%
5,"CCC1(CC)N=C(SCc2ccccc2N(C)C)NC1=O [Example 28, 2-(2-dimethylaminobenzylthio)-5,5-diethylimidazolin-4-one]",73.8%
6,"CN(C)c1ccccc1CSC1=NC(=O)/C(=C\c2ccccc2)N1 [Example 18, 2-(2-dimethylaminobenzylthio)-5-trans-benzylideneimidazolin-4-one]",34.1%
7,"C=C1NC(SCc2ccccn2)=NC1=O [Example 5, 2-(2-pyridylmethylthio)-5-trans-methylideneimidazolin-4-one]",23.3%
8,"O=C1N=C(SCc2ccccn2)N/C1=C/c1ccccc1 [Example 4, 2-(2-pyridylmethylthio)-5-trans-benzylideneimidazolin-4-one]",63.3%
9,"CN(C)c1ccccc1CSC1=NC(C)(C)C(=O)N1 [Example 16, 2-(2-dimethylaminobenzylthio)-5,5-dimethylimidazolin-4-one]",82.4%

# Tested on: hydrochloric acid.ethanol-induced gastric ulcer
# Experiment: Inhibitory effect on hydrochloric acid.ethanol-induced gastric ulcer
# Assay type: in vivo
# Details: Rattus norvegicus, 1 h, male SD rats, oral, 30 min before 98% ethanol containing 200 mM hydrochloric acid, read-out: Inhibitory Percent (ulcer inhibitory percent)
# Protocol: Male SD rats of 7-week age were fasted for 24 hours, with a fast of water beginning in early morning of the day when the experiments were performed. The rats were classified into groups each consisting of five rats, such that all the groups have substantially the same average weight. Before giving hydrochloric acid.ethanol to the rats, the compounds of the Examples indicated in TABLE 2 were orally administered as specimen drugs to the rats, with a dose of 30 mg/kg. Thirty minutes later, 1 mL of 98% ethanol containing 200 mM of hydrochloric acid was orally administered to each specimen rat. One hour later, the specimen rats were sacrificed by ether, and the mucosa of the stomach of each rat was semi-fixed with 2% formalin. The longitudinal length of the damaged area of the gastric mucosa was measured, and the anti-ulcer percent values of the individual specimen drugs were calculated on the basis of the sum of the measured length values of each group of the specimen rats, in the same manner as in Example 68.
row,SMILES,inhibition in vivo at 30 mg/kg
1,"CC1N=C(SCc2ccccn2)NC1=O (centres unmarked) [Example 9, 2-(2-pyridylmethylthio)-5-methylimidazolin-4-one]",94.9%
2,"O=C1CN=C(SCc2ccccn2)N1 [Example 1, 2-(2-pyridylmethylthio)imidazolin-4-one]",71.9%
3,"CC1(C)N=C(SCc2ccccn2)NC1=O [Example 8, 2-(2-pyridylmethylthio)-5,5-dimethylimidazolin-4-one]",93%
4,"CN(C)c1ccccc1CSC1=NC(C)(c2ccccc2)C(=S)N1 (centres unmarked) [Example 41, 2-(2-dimethylaminobenzylthio)-5-phenyl-5-methylimidazolin-4-thione]",74.5%
5,"CCC1(C)C(=O)N=C(SCc2ccccc2N(C)C)N1C(C)=O (centres unmarked) [Example 34, 1-N-acetyl-2-(2-dimethylaminobenzylthio)-5-ethyl-5-methyl-2-imidazolin-4-one]",52%
6,"CCCCC1(CC)N=C(SCc2ccccc2N(C)C)NC1=O (centres unmarked) [Example 29, 2-(2-dimethylaminobenzylthio)-5-butyl-5-ethylimidazolin-4-one]",69.5%
7,"CC(C)CN(C)c1ccccc1CSC1=NC(C)(C)C(=O)N1 [Example 21, 2-(2-N-isobutyl-N-methylaminobenzylthio)-5,5-dimethylimidazolin-4-one]",99.6%
8,"CN(C)c1ccccc1CSC1=NC(Cc2ccccc2)C(=O)N1 (centres unmarked) [Example 23, 2-(2-dimethylaminobenzylthio)-5-benzylimidazolin-4-one]",83.6%

# Same assay, conditions: male SD rats, oral, 30 mg/kg, 30 min before 98% ethanol containing 200 mM hydrochloric acid
row,SMILES,Inhibitory Percent (ulcer inhibitory percent)
1,"CN(C)c1ccccc1CSC1=NC(=O)/C(=C\c2ccccc2)N1 [Example 18, 2-(2-dimethylaminobenzylthio)-5-trans-benzylideneimidazolin-4-one]",37.4%

# Tested on: acetic acid-induced gastric ulcer
# Experiment: Healing effect on acetic acid-induced gastric ulcer of rat
# Assay type: in vivo
# Details: male Donryu rat, oral, 50 mg/kg two times a day, 10 consecutive days; ulcer surface area
# Protocol: A male Donryu rat of 7-week age was subjected to abdominal incision to expose the stomach, with pentobarbital used as an anesthesia. Using a metal ring having an inside diameter of 10 mm, 200 μL of glacial acetic acid was applied for contact with a serosa-side part of a boundary area between the antrum and the corpus body. The abdomen of the specimen rat subjected to the glacial acetic acid was closed by an operation, and the rat was then fed in a normal way. The compound obtained in Example 16 was orally administered as a specimen drug to the specimen rat two times a day (at 9:00 a.m. and 5:00 p.m.), each time with a dose of 50 mg/kg, beginning on the day following the day on which the glacial acetic acid was applied to the rat. The oral administration continued for 10 consecutive days, with a total of 20 administrations. On the day following the last day of administration, the specimen rat was sacrificed with ether, and the ulcer portion of the rat was fixed with formalin. The surface area of the ulcer portion was measured. The healing percent (%) calculated on the basis of the measured surface area was 28.9%.
row,SMILES,healing percent
1,"CN(C)c1ccccc1CSC1=NC(C)(C)C(=O)N1 [Example 16, 2-(2-dimethylaminobenzylthio)-5,5-dimethylimidazolin-4-one]",28.9%

# Tested on: not listed separately
# Experiment: Single-dose toxicity study
# Details: mouse, in vivo, male ddY mice, oral, observed two weeks, read-out: median lethal dose LD50
# Protocol: Ten male ddY mice (each having a weight of 22-28 g) were used as specimen animal in a cage kept at a substantially constant temperature of 23°±1° C. and under a substantially constant humidity of 55±5%. The compound prepared in Example 39, that is, 2-(2-dimethylaminobenzylthio)-5,5-dimethylimidazolin-4-thione was used as the specimen drug. This compound was suspended in a 2% solution of polysorbate 80, and the suspension was administered to each specimen mouse, with different doses. […] On the basis of the death percent, lethal dose (LD50) which causes a 50% death was obtained as an index indicative of the single dose toxicity. The obtained median lethal dose LD50 (oral administration) was 2000 mg/kg or more. It was thus confirmed that the median lethal dose LD50 (oral administration) of the compound according to the present invention was sufficiently large, indicating a low degree of toxicity or a high degree of safety.
row,SMILES,LD50 at 336 h
1,"CN(C)c1ccccc1CSC1=NC(C)(C)C(=S)N1 [Example 39, 2-(2-dimethylaminobenzylthio)-5,5-dimethylimidazolin-4-thione]",≥ 2000 mg/kg
